Assay results taken from patent US20260159520A1, “HETEROBIFUNCTIONAL COMPOUNDS AND METHODS OF TREATING DISEASE” (Halda Therapeutics OpCo, Inc., priority 2022, published 2026).

Tests used:
CDK9 = target: T1, CDK9 (Homo sapiens, UniProt P50750); assay: KdELECT binding assay, CDK9; conditions: CDK9, Table 7
T1 construct: made in house; host or cells: E. coli BL21-derived host (T7 phage) or HEK-293 ('BEK-293' [sic])
Procedure: Compounds were tested using a KdELECT. Kinase-tagged T7 phage strains were prepared in an E. coli host derived from the BL21 strain. E. coli were grown to log-phase and infected with T7 phage and incubated with shaking at 32° C. until lysis. The lysates were centrifuged and filtered to remove cell debris. The remaining kinases were produced in BEK-293 cells and subsequently tagged with DNA for qPCR detection. Streptavidin-coated magnetic beads were treated with biotinylated small molecule ligands for 30 minutes at room temperature to generate affinity resins for kinase assays. The liganded beads were blocked with excess biotin and washed with blocking buffer (SeaBlock (Pierce), 1% BSA, 0.05% Tween 20, 1 mM DTT) to remove unbound ligand and to reduce non-specific binding. Binding reactions were assembled by combining kinases, liganded affinity beads, and test compounds in 1× binding buffer (20% SeaBlock, 0.17×PBS, 0.05% Tween 20, 6 mM DTT). Test compounds were prepared as 111× stocks in 100% DMSO. Kd values were determined using an 11-point 3-fold compound dilution series with three DMSO control points. All compounds for Kd measurements are distributed by acoustic transfer (non-contact dispensing) in 100% DMSO. The compounds were then diluted directly into the assays such that the final concentration of DMSO was 0.9%. All reactions performed in polypropylene 384-well plate. Each was a final volume of 0.02 mL. The assay plates were incubated at room temperature with shaking for 1 hour and the affinity beads were washed with wash buffer (lx PBS, 0.05% Tween 20). The beads were then re-suspended in elution buffer (lx PBS, 0.05% Tween 20, 0.5 μM nonbiotinylated affinity ligand) and incubated at room temperature with shaking for 30 minutes. The kinase concentration in the eluates was measured by qPCR.

[1] = tested on: T-Rex 293 cell line SC3 cells having increased expression of androgen receptor protein; assay: Cellular growth inhibition, T-Rex 293 SC3 cells with doxycycline (increased androgen receptor expression); type: cell-based; conditions: with 10 ng/mL doxycycline (increased androgen receptor), 72 hours, CellTiter-Glo 2.0
In short: (§1)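 Doxycycline (10 ng/mL) was either included or omitted to toggle wild-type androgen receptor expression in SC3 cells, a T-Rex 293 clone, grown in stripped-serum, phenol red-free medium. After 72 hours with compound, viable cells were quantified by CellTiter-Glo 2.0.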

[2] = tested on: T-Rex 293 cell line SC3 cells lacking increased expression of androgen receptor protein; assay: Cellular growth inhibition, T-Rex 293 SC3 cells without doxycycline; type: cell-based; conditions: not exposed to doxycycline, 72 hours, CellTiter-Glo 2.0
In short: as §1

VCaP cells = assay: Cellular growth inhibition assay for VCaP cells; type: cell-based; conditions: Homo sapiens, 72 hours, CellTiter-Glo 2.0
T47D cells = assay: Cellular growth inhibition assay for T47D cells; type: cell-based; conditions: Homo sapiens, 72 hours, CellTiter-Glo 2.0
Procedure: T47D cells were purchased from American Type Cell Culture (ATCC Cat #HTB-133) and then seeded on poly-D-lysine coated, black clear-bottom 384-well plates at 3000/well in 25 μL Dulbecco's Modified Eagle Medium (DMEM) supplemented with 10% w/w Fetal bovine serum (FBS), 0.2 units/mL recombinant human insulin (Gibco Cat #12585014), and 1% w/w Pen-Strep. Pen-Strep is a commercially available mixture of penicillin G and streptomycin, which is used in mammalian cell culture media to prevent bacterial contamination. Dulbecco's Modified Eagle Medium (DMEM) supplemented with 10% w/w fetal bovine serum (FBS), 0.2 units/mL recombinant human insulin, and 1% w/w Pen-Strep is herein referred to as Treatment Medium. Following seeding of cells in the plates, the plates were spun at 300×g for 30 seconds, then equilibrated to room temperature for 30 minutes, and then deposited in a humidified tissue culture incubator maintained at 37° C. with 5% CO2.
At 24 hours after seeding of the cells, dilutions of test compound were prepared in DMSO and dissolved in Treatment Medium, to achieve a final DMSO concentration of 0.5% w/w, thereby providing the Test Compound Solution. A 25 μL aliquot of the Test Compound Solution was added to cells in the well plates. An equal volume of a solution containing DMSO and Treatment Medium was used as a negative control. Following treatment of cells with Test Compound Solution or said equal volume of a solution containing DMSO and Treatment Medium, the plates were spun at 300×g for 30 seconds, and then left in an incubator for 72 hours.
At the end of the treatment duration, cell viability was quantified with CellTiter-Glo 2.0 reagent (Promega Cat #G9243). For this purpose, plates were equilibrated to room temperature for 30 minutes, and then 25 μL of CellTiter-Glo 2.0 reagent was added to cells in the plate wells. Plates were then agitated on a shaker for two minutes at 500 rpm and subsequently incubated at room temperature for 10 minutes. Following incubation, the plates were spun at 3000×g for 30 seconds, then sealed with an optical adhesive cover, and luminescence readings were measured with an EnVision Plate Reader (Perkin Elmer).
Data was normalized using zero luminescence for baseline. A four-parameter non-linear regression curve fit was applied to dose-response data in GraphPad Prism data analysis software to determine the half-maximal growth inhibitory concentration (GI50) for each test compound.

androgen receptor = target: T2, androgen receptor (Homo sapiens, UniProt P10275); assay: Binding affinity to androgen receptor ([3H]methyltrienolone radioligand, cell cytosol); conditions: Table 6
T2 construct: endogenous in cells; host or cells: unnamed cells (cytosol fraction)
T2 sequence (P10275 1-920): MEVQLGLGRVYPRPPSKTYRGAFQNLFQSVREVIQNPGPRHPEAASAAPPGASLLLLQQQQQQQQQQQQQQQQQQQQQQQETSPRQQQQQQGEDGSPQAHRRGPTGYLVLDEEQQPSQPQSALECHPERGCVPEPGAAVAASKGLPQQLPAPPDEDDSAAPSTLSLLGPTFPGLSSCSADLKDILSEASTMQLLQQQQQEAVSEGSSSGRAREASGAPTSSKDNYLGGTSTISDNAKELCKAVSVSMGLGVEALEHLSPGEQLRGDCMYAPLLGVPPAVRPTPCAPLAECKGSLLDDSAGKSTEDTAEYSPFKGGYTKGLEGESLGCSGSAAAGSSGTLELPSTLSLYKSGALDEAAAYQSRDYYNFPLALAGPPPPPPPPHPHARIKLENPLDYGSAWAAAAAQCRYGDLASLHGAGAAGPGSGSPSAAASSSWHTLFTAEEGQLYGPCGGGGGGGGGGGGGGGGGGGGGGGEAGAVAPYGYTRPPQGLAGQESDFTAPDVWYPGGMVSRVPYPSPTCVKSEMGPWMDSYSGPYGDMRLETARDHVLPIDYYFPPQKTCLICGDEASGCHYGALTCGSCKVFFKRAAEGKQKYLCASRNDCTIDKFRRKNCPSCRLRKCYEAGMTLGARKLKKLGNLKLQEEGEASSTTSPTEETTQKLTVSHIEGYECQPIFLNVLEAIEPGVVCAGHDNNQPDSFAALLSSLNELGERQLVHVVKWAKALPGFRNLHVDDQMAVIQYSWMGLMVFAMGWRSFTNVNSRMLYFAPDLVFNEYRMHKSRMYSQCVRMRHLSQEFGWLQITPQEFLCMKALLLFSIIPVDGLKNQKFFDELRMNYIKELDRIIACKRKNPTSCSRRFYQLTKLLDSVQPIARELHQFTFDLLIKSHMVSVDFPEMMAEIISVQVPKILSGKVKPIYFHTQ
Procedure: Fractions of cell cytosol ([…]) were incubated for 24 hr at 4° C. with 1 nM [^3H]methyltrienolone in the absence or presence of the test compound in a buffer containing 25 mM Hepes-Tris (pH 7.4), 1 mM EDTA, 10 mM Na2MoO4, 2 mM DTT, 5 μM triamcinolone acetonide, and 10% glycerol. Nonspecific binding was determined in the presence of 1 μM testosterone. Following incubation, the samples were filtered rapidly under vacuum through glass fiber filters (GF/B, Packard) presoaked with 0.3% PEI and rinsed several times with ice-cold 50 mM Tris-HCl using a 96-sample cell harvester (Unifilter, Packard). The filters were dried then counted for radioactivity in a scintillation counter (Topcount, Packard) using a scintillation cocktail (Microscint 0, Packard). The results are expressed as a percent inhibition of the control radioligand specific binding. The standard reference compound is testosterone, which is tested in each experiment at several concentrations to obtain a competition curve from which its IC50 is calculated.

T1 sequence (P50750 whole entry): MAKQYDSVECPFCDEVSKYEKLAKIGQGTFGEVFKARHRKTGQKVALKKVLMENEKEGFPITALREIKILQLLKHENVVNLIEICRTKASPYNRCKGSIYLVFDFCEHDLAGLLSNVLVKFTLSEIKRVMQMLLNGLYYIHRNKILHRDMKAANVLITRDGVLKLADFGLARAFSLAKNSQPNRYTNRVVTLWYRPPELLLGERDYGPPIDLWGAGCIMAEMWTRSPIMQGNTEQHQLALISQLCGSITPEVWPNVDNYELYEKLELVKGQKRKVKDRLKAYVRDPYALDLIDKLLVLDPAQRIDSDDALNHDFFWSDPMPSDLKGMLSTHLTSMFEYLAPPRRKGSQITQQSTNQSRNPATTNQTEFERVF

| Kd (CDK9) | GI50 (VCaP cells) | GI50 (T47D cells) | Kd (androgen receptor) | SMILES | GI50 [1] | GI50 [2] |
| --- | --- | --- | --- | --- | --- | --- |
| < 50 nM | 100 to 1000 nM | < 500 nM |  | CCc1cnn2c(NCc3ccc(N(C)CC4CCN(CC5CCN(c6ncc(C(=O)N[C@H]7C(C)(C)[C@H](Oc8ccc(C#N)c(Cl)c8)C7(C)C)cn6)CC5)CC4)nc3)cc(N3CCCC[C@H]3CCO)nc12 [Compound I-59, N-((1r,3r)-3-(3-chloro-4-cyanophenoxy)-2,2,4,4-tetramethylcyclobutyl)-2-(4-((4-(((5-(((3-ethyl-5-((S)-2-(2-hydroxyethyl)piperidin-1-yl)pyrazolo[1,5-a]pyrimidin-7-yl)amino)methyl)pyridin-2-yl)(methyl)amino)methyl)piperidin-1-yl)methyl)piperidin-1-yl)pyrimidine-5-carboxamide] | < 100 nM | 100 to 1000 nM |
| 50 to 500 nM | 100 to 1000 nM | 1500 to 3000 nM |  | COc1cc(F)ccc1-c1ccnc2[nH]c(C3CCN(CCOCCOCCOCCOC4CCN(c5ncc(C(=O)N[C@H]6C(C)(C)[C@H](Oc7ccc(C#N)c(Cl)c7)C6(C)C)cn5)CC4)CC3)cc12 [Compound I-70] | 1000 to 3500 nM | 1000 to 3500 nM |
| < 50 nM | < 100 nM | < 500 nM |  | CC(C)n1cc(-c2ccnc3[nH]c(C4CCN(CCOCCOC5CCN(c6ncc(C(=O)N[C@H]7C(C)(C)[C@H](Oc8ccc(C#N)c(Cl)c8)C7(C)C)cn6)CC5)CC4)cc23)ccc1=O [Compound I-76] | 100 to 1000 nM | 100 to 1000 nM |
| 500 to 2500 nM | 100 to 1000 nM | < 500 nM |  | CC1(C)[C@H](NC(=O)c2cnc(N3CCC(OCCOCCOCCOCCN4C/C=C/CCOc5cccc(c5)-c5ccnc(n5)Nc5cccc(c5)C4)CC3)nc2)C(C)(C)[C@H]1Oc1ccc(C#N)c(Cl)c1 [Compound I-90] | 100 to 1000 nM | > 3500 nM |
| < 50 nM | < 100 nM | 500 to 1500 nM |  | CC(C)n1cc(-c2ccnc3[nH]c(C4CCN(CCOCCOCCOCCOC5CCN(c6ncc(C(=O)N[C@H]7C(C)(C)[C@H](Oc8ccc(C#N)c(Cl)c8)C7(C)C)cn6)CC5)CC4)cc23)ccc1=O [Compound I-78] | < 100 nM | 100 to 1000 nM |
|  |  |  | < 50 nM | CCc1cnn2c(NCc3ccc(OCCCN4CCN(CCCN(C)c5ncc(C(=O)N[C@H]6C(C)(C)[C@H](Oc7ccc(C#N)c(Cl)c7)C6(C)C)cn5)CC4)nc3)cc(N3CCCC[C@H]3CCO)nc12 [Compound I-6, N-((1r,3r)-3-(3-chloro-4-cyanophenoxy)-2,2,4,4-tetramethylcyclobutyl)-2-((3-(4-(3-((5-(((3-ethyl-5-((S)-2-(2-hydroxyethyl)piperidin-1-yl)pyrazolo[1,5-a]pyrimidin-7-yl)amino)methyl)pyridin-2-yl)oxy)propyl)piperazin-1-yl)propyl)(methyl)amino)pyrimidine-5-carboxamide] | < 100 nM | 100 to 1000 nM |
| > 2500 nM |  | < 500 nM |  | CN(CCOCCOCCOCCOCCNS(=O)(=O)c1ccc(Nc2ncc(Br)c(Nc3cccc(F)c3C(N)=O)n2)cc1)c1ncc(C(=O)N[C@H]2C(C)(C)[C@H](Oc3ccc(C#N)c(Cl)c3)C2(C)C)cn1 [Compound I-20] | > 3500 nM | > 3500 nM |
| 500 to 2500 nM | > 3500 nM | 500 to 1500 nM |  | CC1(C)[C@H](NC(=O)c2cnc(N3CCC(OCCN4C/C=C/CCOc5cccc(c5)-c5ccnc(n5)Nc5cccc(c5)C4)CC3)nc2)C(C)(C)[C@H]1Oc1ccc(C#N)c(Cl)c1 [Compound I-87, N-[3-(3-chloro-4-cyano-phenoxy)-2,2,4,4-tetramethyl-cyclobutyl]-2-[4-[2-[(16E)-20-oxa-5,7,14,27-tetrazatetracyclo [19.3.1.12,6.18,12]heptacosa-1(24),2(27),3,5,8(26),9,11,16, 21(25),22-decaen-14-yl]ethoxy]-1-piperidyl]pyrimidine-5-carboxamide] | 100 to 1000 nM | > 3500 nM |
| < 50 nM | 100 to 1000 nM | 1500 to 3000 nM |  | COc1cc(F)ccc1-c1ccnc2[nH]c(C3CCN(CCOCCOC4CCN(c5ncc(C(=O)N[C@H]6C(C)(C)[C@H](Oc7ccc(C#N)c(Cl)c7)C6(C)C)cn5)CC4)CC3)cc12 [Compound I-69] | 100 to 1000 nM | 100 to 1000 nM |
| > 2500 nM |  | 1500 to 3000 nM |  | CC1(C)[C@H](NC(=O)c2cnc(N3CCC(OCCCN4CCN(CCCNS(=O)(=O)c5ccc(Nc6ncc(Br)c(Nc7cccc(F)c7C(N)=O)n6)cc5)CC4)CC3)nc2)C(C)(C)[C@H]1Oc1ccc(C#N)c(Cl)c1 [Compound I-17] | > 3500 nM | > 3500 nM |
